Reference: patent US8795977B2, “Method for screening a potential modulator compound of a taste receptor” (Conopco, Inc., priority 2009, dated 2014)

Test system: Control cells (no T1R1/T1R3)
Test: Calcium-based receptor assay in control cells not expressing the receptor
Format: cell-based, human
Settings: change in fluorescence (ΔF)
Text: We developed a unique functional umami receptor assay to evaluate and quantify umami in tomato and other crude plant or food extracts using the BRET technique: to test the principle we used the donor and acceptor proteins relating to BRET-2. In short, the human T1R1 and T1R3 taste receptors were cloned and fused with Renilla luciferase (Rluc) as donor protein; green fluorescent protein-2 (GFP2) served as acceptor protein and was fused to β-arrestin-2. Both constructs were transfected into a HEK293 cell line cells) for heterologous expression of the proteins. Various mammalian cell lines have been reported to be highly suitable for expression of receptors or other proteins, with HEK293 (human embryonic kidney) cells and CHO (Chinese hamster ovary) cells being some of the most versatile and suitable ones^12. Similarly, GPCRs can be expressed in various ways as described in multiple publications, such as transient^6, 8, 13-15 or stable (constitutive or inducible)^6, 9, 16, 17 expression, depending on the nature of the experiment, the respective receptor or the available time. Upon receptor stimulation with an agonist or crude extracts, the β-arrestin-2/GFP-2 protein interacts with the activated receptor thus bringing GFP-2 in close proximity with luciferase, making energy transfer between these two proteins possible and generating a BRET signal. In the presence of oxygen the luciferase catalyses the transformation of the substrate DeepBlueC into coelenteramide, which can be measured at 395-410 nm. If GFP-2 is in close proximity to the luciferase and energy transfer takes place, the emission will shift to 510 nm; this is referred to as the BRET signal and is expressed as ratio between the acceptor (GFP-2) and the donor (Renilla luciferase). The following experiments are designed to illustrate that conventional calcium-based functional receptor assays are not suitable for measuring the effects of crude extracts; in contrast, the BRET assay (as indicated here with umami) can clearly measure specific receptor responses using crude natural extracts. Moreover, the assay is also sensitive enough for detecting differences of receptor activation between the different tomato samples. Materials & Methods: Chemicals and Media: Fluo-4 AM was from Molecular Probes (# F-14202, prepared as 5 mM stock in DMSO), DMEM (with 4.5 g/l glucose and ultraglutamine, # BE12-604F) was from Lonza, trypsin-EDTA, Lipofectamine 2000, OptiMem and FCS were obtained from Life Technologies Invitrogen. Monosodium glutamate (MSG), Inosine 5′-monophosphate as well as all other chemicals were from Sigma-Aldrich. The plasmid encoding GFP2-β-arrestin-2 was purchased from BioSignal Packard (#6310176). Coelenterazine 400A (a DeepBlueC derivative) and Coelenterazine-H were from VWR International (# BTIU10125-1 and 233903-50, respectively). All other cell culture supplies were from Greiner BioOne. Receptor Fusion Constructs, Cell Lines, and Media: The human T1R1 and human T1R3 umami receptors were fused at their C-terminal in frame to Renilla Luciferase (Rluc) using standard molecular cloning techniques and the codon-humanized pRluc-N3 vector from PerkinElmer (#6310220). For expression of the umami receptors and the construct encoding GFP-2/β-arrestin-2, HEK293 cells (human embryonic kidney cells, ATCC) were used using traditional transfection methods (see also below). HEK293 cells were maintained in DMEM and 10% FBS at 37° C./5% CO2. Tomato Extracts: The tomato extracts which served as representative natural, complex test material were prepared as follows: Frozen tomato samples (in −80° C.) were weighed and dissolved in an equal amount of water. After the seeds and locular tissues (pulp) were removed and put aside, the tomato pericarp (flesh) was ground using a mortar and pestle. The seeds and pulp were then added back to the mixture ensuring that they are well mixed and the seeds were not crushed. […]

N[C@@H](CCC(=O)O)C(=O)[O-].[Na+] [MSG, Monosodium glutamate]
release of intracellular calcium, Control cells (no T1R1/T1R3), average (100 μM MSG): 1135 | release of intracellular calcium, Control cells (no T1R1/T1R3), meas. 1 (100 μM MSG): 1102 | release of intracellular calcium, Control cells (no T1R1/T1R3), meas. 2 (100 μM MSG): 1168 | release of intracellular calcium, Control cells (no T1R1/T1R3), average (1 mM MSG): 1060 | release of intracellular calcium, Control cells (no T1R1/T1R3), meas. 1 (1 mM MSG): 1100 | release of intracellular calcium, Control cells (no T1R1/T1R3), meas. 2 (1 mM MSG): 1020 | release of intracellular calcium, Control cells (no T1R1/T1R3), average (10 mM MSG): 1115 | release of intracellular calcium, Control cells (no T1R1/T1R3), meas. 1 (10 mM MSG): 1200 | release of intracellular calcium, Control cells (no T1R1/T1R3), meas. 2 (10 mM MSG): 1030
